This note sets out measurements from ChEMBL document CHEMBL5696441 (Nat Chem Biol, 2011).

In test [1] the target is Calcium/calmodulin-dependent protein kinase type II subunit delta (Homo sapiens) (UniProt Q13557). Briefly: Inhibition of human CAMK2D assessed as residual activity at 1 uM using RBER-CHKtide as substrate in presence of 33P-ATP by ProQinase assay relative to control.
The target in test [2] is Ribosomal protein S6 kinase alpha-1 (Homo sapiens) (UniProt Q15418). The test is described as follows: Inhibition of human RPS6KA1 assessed as residual activity at 1 uM using RBER-CHKtide as substrate in presence of 33P-ATP by ProQinase assay relative to control.
Ribosomal protein S6 kinase alpha-1 (Homo sapiens), sequence (Q15418 whole entry, the tested form may be a part): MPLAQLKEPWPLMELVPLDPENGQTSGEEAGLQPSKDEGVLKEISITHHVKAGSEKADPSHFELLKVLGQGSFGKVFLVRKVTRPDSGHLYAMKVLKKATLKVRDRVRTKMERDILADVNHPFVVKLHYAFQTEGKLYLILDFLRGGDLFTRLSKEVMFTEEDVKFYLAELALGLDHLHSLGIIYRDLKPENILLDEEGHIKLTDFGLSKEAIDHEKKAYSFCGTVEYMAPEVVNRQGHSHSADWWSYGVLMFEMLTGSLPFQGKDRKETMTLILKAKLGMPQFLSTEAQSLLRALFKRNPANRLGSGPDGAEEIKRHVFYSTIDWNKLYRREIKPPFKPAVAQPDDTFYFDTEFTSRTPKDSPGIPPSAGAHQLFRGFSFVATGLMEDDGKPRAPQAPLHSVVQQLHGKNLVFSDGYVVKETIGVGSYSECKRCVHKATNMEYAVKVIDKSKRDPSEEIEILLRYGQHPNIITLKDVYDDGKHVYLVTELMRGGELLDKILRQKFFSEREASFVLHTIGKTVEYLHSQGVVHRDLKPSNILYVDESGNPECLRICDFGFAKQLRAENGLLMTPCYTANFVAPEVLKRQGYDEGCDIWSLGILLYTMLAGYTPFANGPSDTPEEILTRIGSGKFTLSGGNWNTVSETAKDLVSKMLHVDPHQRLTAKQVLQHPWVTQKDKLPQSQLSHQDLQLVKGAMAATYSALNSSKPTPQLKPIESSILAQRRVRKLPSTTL
Test [3] deals with Mitogen-activated protein kinase 1 (Homo sapiens) (UniProt P28482). Briefly: Inhibition of ERK2 (unknown origin) assessed as remaining activity at 1 uM by Kinome scan method relative to control.
Test [4] has as its target Tyrosine-protein kinase Srms (Homo sapiens) (UniProt Q9H3Y6). The test is described as follows: Inhibition of SRMS (unknown origin) assessed as remaining activity at 1 uM by Kinome scan method relative to control.
Test [5] deals with Ribosomal protein S6 kinase alpha-1 (Homo sapiens) (UniProt Q15418). The test is described as follows: Inhibition of C-terminal kinase domain RPS6KA1 (unknown origin) assessed as remaining activity at 1 uM by Kinome scan method relative to control.
Test [6] concerns the target T1, Serine/threonine-protein kinase BRSK1 (Homo sapiens) (UniProt Q8TDC3).
T1 sequence (whole entry): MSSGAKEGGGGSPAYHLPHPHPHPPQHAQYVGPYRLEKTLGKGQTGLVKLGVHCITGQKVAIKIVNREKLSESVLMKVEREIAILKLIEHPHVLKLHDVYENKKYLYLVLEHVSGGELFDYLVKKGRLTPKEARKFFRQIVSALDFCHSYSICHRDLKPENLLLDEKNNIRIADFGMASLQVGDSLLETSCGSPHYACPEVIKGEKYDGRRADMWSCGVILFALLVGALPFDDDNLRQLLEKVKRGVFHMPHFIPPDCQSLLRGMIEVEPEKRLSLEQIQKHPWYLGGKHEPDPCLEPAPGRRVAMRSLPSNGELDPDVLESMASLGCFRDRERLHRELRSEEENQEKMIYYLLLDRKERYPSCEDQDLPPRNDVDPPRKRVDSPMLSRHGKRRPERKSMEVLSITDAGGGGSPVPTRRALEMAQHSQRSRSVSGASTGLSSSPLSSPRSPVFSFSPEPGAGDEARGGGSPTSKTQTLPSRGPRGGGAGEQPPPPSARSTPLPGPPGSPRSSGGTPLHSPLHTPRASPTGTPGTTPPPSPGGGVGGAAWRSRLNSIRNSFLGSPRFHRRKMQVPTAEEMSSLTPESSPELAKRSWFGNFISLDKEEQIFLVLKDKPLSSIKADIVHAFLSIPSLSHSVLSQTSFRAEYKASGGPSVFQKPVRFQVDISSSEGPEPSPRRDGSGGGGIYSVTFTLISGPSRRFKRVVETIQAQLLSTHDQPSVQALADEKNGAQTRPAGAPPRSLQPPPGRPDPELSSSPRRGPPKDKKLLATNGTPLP
The test is described as follows: Inhibition of human BRSK1 assessed as residual activity at 1 uM using RBER-CHKtide as substrate in presence of 33P-ATP by ProQinase assay relative to control.

For test [7], the target named is Protein kinase C eta type (Homo sapiens) (UniProt P24723). Briefly: Inhibition of human PKCeta assessed as residual activity at 1 uM using histon H2B as substrate in presence of 33P-ATP by ProQinase assay relative to control.
Protein kinase C eta type (Homo sapiens), sequence (P24723 whole entry): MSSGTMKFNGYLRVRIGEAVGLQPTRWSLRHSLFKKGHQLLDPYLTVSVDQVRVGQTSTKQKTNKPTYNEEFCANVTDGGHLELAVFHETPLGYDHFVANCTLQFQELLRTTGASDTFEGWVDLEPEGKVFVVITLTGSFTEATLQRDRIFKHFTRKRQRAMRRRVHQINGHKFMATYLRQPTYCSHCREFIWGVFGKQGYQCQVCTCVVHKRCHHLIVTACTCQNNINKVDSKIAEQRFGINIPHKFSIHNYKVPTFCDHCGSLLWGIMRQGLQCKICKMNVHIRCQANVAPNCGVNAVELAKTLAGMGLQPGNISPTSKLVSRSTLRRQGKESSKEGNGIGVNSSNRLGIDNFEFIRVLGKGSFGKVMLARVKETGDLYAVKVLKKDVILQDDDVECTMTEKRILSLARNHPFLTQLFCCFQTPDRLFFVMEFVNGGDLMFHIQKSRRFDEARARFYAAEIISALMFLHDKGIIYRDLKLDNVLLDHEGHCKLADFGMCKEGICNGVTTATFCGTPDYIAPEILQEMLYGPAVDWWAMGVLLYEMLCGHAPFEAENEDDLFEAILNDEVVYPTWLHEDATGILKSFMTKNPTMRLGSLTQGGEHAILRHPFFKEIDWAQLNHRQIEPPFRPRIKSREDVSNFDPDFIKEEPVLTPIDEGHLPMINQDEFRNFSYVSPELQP
For test [8], the target named is Proto-oncogene tyrosine-protein kinase Src (Homo sapiens) (UniProt P12931). The test is described as follows: Inhibition of SRC (unknown origin) assessed as remaining activity at 1 uM by Kinome scan method relative to control.
Test [9] addresses Serine/threonine-protein kinase Nek6 (Homo sapiens) (UniProt Q9HC98). The test is described as follows: Inhibition of human NEK6 assessed as residual activity at 1 uM using RBER-GSK3 as substrate in presence of 33P-ATP by ProQinase assay relative to control.
Test [10] addresses Focal adhesion kinase 1 (Homo sapiens) (UniProt Q05397). The test is described as follows: Inhibition of human FAK (2 to 1052 residues) assessed as residual activity at 1 uM using polyEY as substrate in presence of 33P-ATP by ProQinase assay relative to control.
Test [11] deals with T2, Testis-specific serine/threonine-protein kinase 1 (Homo sapiens) (UniProt Q9BXA7).
T2 sequence (whole entry): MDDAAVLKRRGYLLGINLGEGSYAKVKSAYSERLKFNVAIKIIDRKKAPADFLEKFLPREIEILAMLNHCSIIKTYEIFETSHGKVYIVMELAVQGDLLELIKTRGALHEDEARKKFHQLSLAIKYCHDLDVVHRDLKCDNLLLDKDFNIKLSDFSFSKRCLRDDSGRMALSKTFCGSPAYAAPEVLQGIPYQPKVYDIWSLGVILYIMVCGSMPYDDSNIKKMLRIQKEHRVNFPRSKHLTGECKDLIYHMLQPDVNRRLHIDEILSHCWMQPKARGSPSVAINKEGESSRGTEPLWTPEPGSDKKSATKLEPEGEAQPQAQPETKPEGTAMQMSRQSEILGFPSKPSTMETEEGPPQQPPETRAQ
The test is described as follows: Inhibition of human TSSK1 assessed as residual activity at 1 uM using RBER-CHKtide as substrate in presence of 33P-ATP by ProQinase assay relative to control.

Test [12] relates to Hepatocyte growth factor receptor (Homo sapiens), P08581 [Y1230A]. The test is described as follows: Inhibition of human MET Y1230A mutant assessed as residual activity at 1 uM using poly(Ala,Glu,Lys,Tyr)6:2:5:1 as substrate in presence of 33P-ATP by ProQinase assay relative to control.
Test [13] relates to Fibroblast growth factor receptor 1 (Homo sapiens), P11362 [V561M]. The test is described as follows: Inhibition of human FGFR1 V561M mutant assessed as residual activity at 1 uM using Poly(Ala,Glu,Lys,Tyr)6:2:5:1 as substrate in presence of 33P-ATP by ProQinase assay relative to control.
Fibroblast growth factor receptor 1 (Homo sapiens), P11362 [V561M], sequence (P11362 whole entry V561M): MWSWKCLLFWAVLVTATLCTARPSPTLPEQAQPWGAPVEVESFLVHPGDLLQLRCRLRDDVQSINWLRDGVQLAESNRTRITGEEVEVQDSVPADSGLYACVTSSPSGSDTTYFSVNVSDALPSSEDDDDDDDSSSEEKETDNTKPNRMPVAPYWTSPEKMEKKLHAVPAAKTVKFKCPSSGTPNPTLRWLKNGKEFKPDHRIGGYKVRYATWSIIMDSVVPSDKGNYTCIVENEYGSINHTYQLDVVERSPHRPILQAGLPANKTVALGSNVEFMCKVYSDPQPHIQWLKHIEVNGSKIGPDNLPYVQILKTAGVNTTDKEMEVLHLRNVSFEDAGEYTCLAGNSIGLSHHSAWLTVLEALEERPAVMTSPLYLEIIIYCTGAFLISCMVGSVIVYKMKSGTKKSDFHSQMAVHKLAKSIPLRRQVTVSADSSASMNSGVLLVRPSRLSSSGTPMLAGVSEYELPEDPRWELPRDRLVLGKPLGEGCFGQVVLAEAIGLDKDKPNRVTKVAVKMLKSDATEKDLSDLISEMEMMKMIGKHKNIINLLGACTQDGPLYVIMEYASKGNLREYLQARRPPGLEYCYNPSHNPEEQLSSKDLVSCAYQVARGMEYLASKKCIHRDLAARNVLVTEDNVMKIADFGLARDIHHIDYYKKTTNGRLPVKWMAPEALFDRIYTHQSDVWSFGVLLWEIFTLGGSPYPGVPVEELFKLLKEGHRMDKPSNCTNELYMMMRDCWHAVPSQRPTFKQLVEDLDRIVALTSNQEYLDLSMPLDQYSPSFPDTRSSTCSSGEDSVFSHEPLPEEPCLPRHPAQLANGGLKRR
Test [14] addresses Serine/threonine-protein kinase WNK3 (Homo sapiens) (UniProt Q9BYP7). Briefly: Inhibition of human WNK3 assessed as residual activity at 1 uM using RB-S6P as substrate in presence of 33P-ATP by ProQinase assay relative to control.
In test [15] the test system is Phosphatidylinositol 4,5-bisphosphate 3-kinase catalytic subunit alpha isoform (Homo sapiens), P42336 [E542K]. The test is described as follows: Inhibition of PIK3CA E542K mutant (unknown origin) assessed as remaining activity at 1 uM by Kinome scan method relative to control.
The subject of test [16] is Epidermal growth factor receptor (Homo sapiens), P00533 [G719C]. The test is described as follows: Inhibition of human EGFR G719C mutant assessed as residual activity at 1 uM using PolyEY as substrate in presence of 33P-ATP by ProQinase assay relative to control.
The subject of test [17] is Tyrosine-protein kinase ABL1 (Homo sapiens), P00519 [Q252H]. Briefly: Inhibition of human ABL1 Q252H mutant assessed as residual activity at 1 uM using Poly(Ala,Glu,Lys,Tyr)6:2:5:1 as substrate in presence of 33P-ATP by ProQinase assay relative to control.

Serine/threonine-protein kinase WNK3 (Homo sapiens), sequence (Q9BYP7 whole entry, canonical isoform): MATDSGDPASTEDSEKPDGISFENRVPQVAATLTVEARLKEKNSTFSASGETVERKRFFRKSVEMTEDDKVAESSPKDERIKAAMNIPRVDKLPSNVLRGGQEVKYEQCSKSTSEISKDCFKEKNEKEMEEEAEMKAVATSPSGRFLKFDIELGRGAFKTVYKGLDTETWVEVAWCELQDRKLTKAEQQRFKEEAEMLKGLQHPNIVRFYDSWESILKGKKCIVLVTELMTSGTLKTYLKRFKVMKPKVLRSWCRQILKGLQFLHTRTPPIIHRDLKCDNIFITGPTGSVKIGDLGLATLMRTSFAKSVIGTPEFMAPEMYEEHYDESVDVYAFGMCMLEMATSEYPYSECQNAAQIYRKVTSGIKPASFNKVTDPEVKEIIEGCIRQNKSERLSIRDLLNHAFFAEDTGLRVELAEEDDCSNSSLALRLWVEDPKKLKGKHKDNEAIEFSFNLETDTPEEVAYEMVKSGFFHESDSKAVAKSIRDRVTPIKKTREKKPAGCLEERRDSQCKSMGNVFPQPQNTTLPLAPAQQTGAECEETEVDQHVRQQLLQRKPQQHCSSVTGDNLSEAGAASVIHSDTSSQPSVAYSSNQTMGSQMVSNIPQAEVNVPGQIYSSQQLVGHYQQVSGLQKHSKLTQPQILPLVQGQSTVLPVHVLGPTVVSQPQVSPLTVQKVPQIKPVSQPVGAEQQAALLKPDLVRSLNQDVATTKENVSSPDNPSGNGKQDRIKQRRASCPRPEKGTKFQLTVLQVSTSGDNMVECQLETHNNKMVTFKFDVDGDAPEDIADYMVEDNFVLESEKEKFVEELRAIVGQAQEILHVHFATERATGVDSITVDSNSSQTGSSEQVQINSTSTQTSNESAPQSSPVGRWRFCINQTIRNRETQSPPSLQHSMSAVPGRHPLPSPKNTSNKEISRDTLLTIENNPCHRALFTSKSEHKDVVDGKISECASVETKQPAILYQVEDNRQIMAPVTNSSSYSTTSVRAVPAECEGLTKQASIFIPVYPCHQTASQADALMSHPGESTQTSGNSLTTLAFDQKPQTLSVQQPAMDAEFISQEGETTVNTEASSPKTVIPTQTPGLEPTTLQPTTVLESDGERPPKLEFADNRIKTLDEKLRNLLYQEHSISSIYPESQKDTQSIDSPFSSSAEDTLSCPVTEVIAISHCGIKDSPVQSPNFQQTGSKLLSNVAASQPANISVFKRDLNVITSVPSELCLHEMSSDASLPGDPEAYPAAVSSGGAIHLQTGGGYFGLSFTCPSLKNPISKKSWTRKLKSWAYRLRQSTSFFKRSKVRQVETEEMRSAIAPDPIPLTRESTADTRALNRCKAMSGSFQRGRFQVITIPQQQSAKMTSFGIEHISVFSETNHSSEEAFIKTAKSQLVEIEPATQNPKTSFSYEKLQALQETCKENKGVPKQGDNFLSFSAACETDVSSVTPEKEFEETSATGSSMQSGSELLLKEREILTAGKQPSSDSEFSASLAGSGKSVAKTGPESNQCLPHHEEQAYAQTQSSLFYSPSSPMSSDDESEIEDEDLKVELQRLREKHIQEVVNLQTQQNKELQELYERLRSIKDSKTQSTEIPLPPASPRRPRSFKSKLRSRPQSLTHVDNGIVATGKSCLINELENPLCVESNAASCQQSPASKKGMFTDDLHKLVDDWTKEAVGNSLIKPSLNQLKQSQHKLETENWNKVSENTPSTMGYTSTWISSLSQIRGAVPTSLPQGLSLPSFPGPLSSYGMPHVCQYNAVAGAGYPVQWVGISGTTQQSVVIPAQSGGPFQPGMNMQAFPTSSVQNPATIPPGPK
Focal adhesion kinase 1 (Homo sapiens), sequence (Q05397 2-1052 limits assumed): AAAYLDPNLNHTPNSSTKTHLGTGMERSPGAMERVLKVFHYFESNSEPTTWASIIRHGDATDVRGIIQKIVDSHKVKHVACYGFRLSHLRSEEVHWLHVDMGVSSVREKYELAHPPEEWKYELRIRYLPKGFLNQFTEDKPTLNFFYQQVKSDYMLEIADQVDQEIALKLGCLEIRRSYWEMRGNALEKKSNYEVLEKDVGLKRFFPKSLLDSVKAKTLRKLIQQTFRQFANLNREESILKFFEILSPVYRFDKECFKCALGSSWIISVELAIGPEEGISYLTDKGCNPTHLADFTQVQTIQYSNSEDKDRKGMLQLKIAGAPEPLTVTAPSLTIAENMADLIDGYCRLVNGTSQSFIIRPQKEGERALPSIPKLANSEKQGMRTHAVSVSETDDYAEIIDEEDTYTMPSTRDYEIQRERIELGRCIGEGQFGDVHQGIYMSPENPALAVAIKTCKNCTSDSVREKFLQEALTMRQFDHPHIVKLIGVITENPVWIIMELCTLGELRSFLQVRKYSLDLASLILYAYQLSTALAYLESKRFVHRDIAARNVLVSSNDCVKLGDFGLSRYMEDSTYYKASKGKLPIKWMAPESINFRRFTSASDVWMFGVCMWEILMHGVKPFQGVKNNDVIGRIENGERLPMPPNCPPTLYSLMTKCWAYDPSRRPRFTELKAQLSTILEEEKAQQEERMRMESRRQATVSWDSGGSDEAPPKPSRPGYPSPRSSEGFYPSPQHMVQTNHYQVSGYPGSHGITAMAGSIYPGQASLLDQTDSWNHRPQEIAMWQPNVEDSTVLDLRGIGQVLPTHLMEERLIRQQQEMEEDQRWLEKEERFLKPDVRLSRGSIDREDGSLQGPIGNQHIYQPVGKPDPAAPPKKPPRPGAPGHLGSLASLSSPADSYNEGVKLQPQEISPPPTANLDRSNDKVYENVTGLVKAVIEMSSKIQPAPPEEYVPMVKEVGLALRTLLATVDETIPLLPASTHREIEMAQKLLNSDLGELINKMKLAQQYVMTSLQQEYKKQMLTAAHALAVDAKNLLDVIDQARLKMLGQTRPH

As for `O=C1c2ccc(Nc3ccc(F)cc3F)cc2CCc2ccc(OC[C@H](O)CO)cc21` [Skepinone-L], the Activity was found to be 43% in test [1]; 89% in [2]; 100% in test [3]; 90% in [4]; 94% in test [5]; 94% in [6]. Also, the Activity is 97% in [7]; 100% in test [8]; 97% in test [9]; 113% in [10]; 90% in [11]; 91% in [12]. Moreover, the Activity in [13] stood at 89%; in [14], 100%; in test [15], 100%; in test [16] it was 74%; in test [17] it was 95%.
